Consider one molecule from ChEMBL document CHEMBL1156887, “Discovery of olodaterol, a novel inhaled beta2-adrenoceptor agonist with a 24 h bronchodilatory efficacy” (Bioorg Med Chem Lett, 2010).

Series [1] in a line: Lipophilicity, log D at pH 7.4. Type of series: physicochemical. The note with it: buffer.
Series [2] in a line: Apparent permeability from basolateral to apical side in human Caco-2 cells. Type of series: ADME, cell-based.
The nature of series [3]: Oral bioavailability in rat. The series is classed as ADME, organism-based. The note with it: in vivo.
A short description of series [4]: Apparent permeability from apical to basolateral side in human Caco-2 cells. Type of series: ADME, cell-based. On the technique in general: Caco-2 monolayers are a common model of the intestinal barrier.

A word on the logD: it is lipophilicity at a set pH, counting ionised and neutral species. Lower therefore signals lower lipophilicity. The term Papp B→A denotes the apparent permeability from the basolateral to the apical side of a cell layer. What is called bioavailability is the share of a dose that reaches the circulation, judged against a reference dose that is usually intravenous. The low end stands for poor availability, the high end for good availability. What is called Papp A→B is the apparent permeability from the apical to the basolateral side of a cell layer. With `COc1ccc(CC(C)(C)NC[C@H](O)c2cc(O)cc3c2OCC(=O)N3)cc1` [OLODATEROL], the log distribution coefficient (logD) in series [1] was determined as 1.2. Besides, the basolateral-to-apical permeability (Papp B→A) in series [2] stood at 9 ×10⁻⁶ cm/s. Moreover, the bioavailability in series [3] was determined as 3%. For the same molecule, the apical-to-basolateral permeability (Papp A→B) in series [4] worked out at 0.35 ×10⁻⁶ cm/s.
